What was measured:
Experiment in all cases: Cancer cell growth inhibition, Sulforhodamine B
Type in all cases: cell-based
SF268 = conditions: Homo sapiens, SF-268; SF268 (brain), 72 hr; Non-Responder Cell Lines with IC50 >10 uM or Not Determined
Experimental: (§1) The ability of select compounds to inhibit cell growth in various cancer cell lines are evaluated. […] The cell lines shown in Table 5 have reduced growth by at least 50% at 10 uM or lower over 72 hr treatment in growth media. The cell lines shown in Table 6 have reduced growth by at least 50% with an IC50 greater than 10 uM.
(§2) Six 10-fold compound dilutions are prepared in DMSO (e.g. 10 mM, 1 mM, 100 uM, 10 uM, 1 uM, and 0.1 uM). Single data points are acquired for each concentration. The final concentration of DMSO is 0.1%. The duration of the treatment is 72 hr. Growth inhibition is measured using Sulforhodamine B in a protein staining assay. Activity of the agents is determined by evaluation the following parameters: IC50, GI50, IC10, TGI, LC50, IC90, and GI90 (where these values can be calculated).

SKOV3 = conditions: Homo sapiens, SK-OV-3; SKOV3 (ovary), 72 hr; Non-Responder Cell Lines with IC50 >10 uM or Not Determined
Experimental: as §1, §2

NCIH460 = conditions: Homo sapiens, NCI-H460; NCIH460 (lung), 72 hr; Non-Responder Cell Lines with IC50 >10 uM or Not Determined
Experimental: as §1, §2

PANC1 = conditions: Homo sapiens, PANC-1; PANC1 (pancreas), 72 hr; Non-Responder Cell Lines with IC50 >10 uM or Not Determined
Experimental: as §1, §2

SKLMS1 = conditions: Homo sapiens, SK-LMS-1; SKLMS1 (uterus), 72 hr; Non-Responder Cell Lines with IC50 >10 uM or Not Determined
Experimental: as §1, §2

RD = conditions: Homo sapiens; RD (muscle), 72 hr; Non-Responder Cell Lines with IC50 >10 uM or Not Determined
Experimental: as §1, §2

MHHES1 = conditions: Homo sapiens, MHH-ES-1, 72 h
Experimental: as §1, §2

EFO21 = conditions: Homo sapiens, EFO-21; EFO21 (ovary), 72 hr; Responder Cell Lines
Experimental: as §1, §2

T24 = conditions: Homo sapiens, T-24; T24 (bladder), 72 hr; Non-Responder Cell Lines with IC50 >10 uM or Not Determined
Experimental: as §1, §2

L-363 = conditions: Homo sapiens; L-363 (hematological), 72 hr; Responder Cell Lines
Experimental: as §1, §2

OVCAR4 = conditions: Homo sapiens, OVCAR-4; OVCAR4 (ovary), 72 hr; Non-Responder Cell Lines with IC50 >10 uM or Not Determined
Experimental: as §1, §2

HCT116 = conditions: Homo sapiens, HCT-116; HCT116 (colon), 72 hr; Responder Cell Lines
Experimental: as §1, §2

KASUMI-1 = conditions: Homo sapiens; KASUMI-1 (hematological), 72 hr; Non-Responder Cell Lines with IC50 >10 uM or Not Determined
Experimental: as §1, §2

UO31 = conditions: Homo sapiens, UO-31; UO31 (kidney), 72 hr; Non-Responder Cell Lines with IC50 >10 uM or Not Determined
Experimental: as §1, §2

SKNSH = conditions: Homo sapiens, SK-N-SH, 72 h, SKNSH (brain)
Experimental: as §1, §2

K-562 = conditions: Homo sapiens, K562; K-562 (hematological), 72 hr; Responder Cell Lines
Experimental: as §1, §2

SNB75 = conditions: Homo sapiens, SNB-75; SNB75 (brain), 72 hr; Non-Responder Cell Lines with IC50 >10 uM or Not Determined
Experimental: as §1, §2

A2780 = conditions: Homo sapiens; A2780 (ovary), 72 hr; Responder Cell Lines
Experimental: as §1, §2

MG63 = conditions: Homo sapiens, MG-63; MG63 (bone), 72 hr; Non-Responder Cell Lines with IC50 >10 uM or Not Determined
Experimental: as §1, §2

THP-1 = conditions: Homo sapiens, THP-1, 72 h, THP-1 (hematological)
Experimental: as §1, §2

MIAPACA2 = conditions: Homo sapiens, MIA PaCa-2; MIAPACA2 (pancreas), 72 hr; Non-Responder Cell Lines with IC50 >10 uM or Not Determined
Experimental: as §1, §2

SKHEP1 = conditions: Homo sapiens, SK-HEP1, 72 h, SKHEP1 (liver)
Experimental: as §1, §2

SW620 = conditions: Homo sapiens, SW-620; SW620 (colon), 72 hr; Non-Responder Cell Lines with IC50 >10 uM or Not Determined
Experimental: as §1, §2

[1] = Non-Responder Cell Lines with IC50 >10 uM or Not Determined

Work on CC(C)(O)c1cc(-c2csc(-c3ccc(C(=O)N4CCC(O)CC4)cc3Cl)c2)ccn1 [Compound 1, (3-chloro-4-(4-(2-(2-hydroxypropan-2-yl)pyridin-4-yl)thiophen-2-yl)phenyl)(4-hydroxypiperidin-1-yl)methanone] yielded an IC50 (SF268) of over 10 µM, an IC50 (SKOV3) of over 10 µM and an IC50 (NCIH460) of over 10 µM. It also gave an IC50 (PANC1) of over 10 µM, an IC50 (SKLMS1) of over 10 µM and an IC50 (RD) of over 10 µM. It also gave an IC50 (MHHES1; MHHES1 (bone), Non-Responder Cell Lines with IC50 >10 uM or Not Determined) of over 10 µM, an IC50 (MHHES1; MHHESI (bone), Responder Cell Lines) of under 10 µM and an IC50 (EFO21) of under 10 µM. The IC50 (T24) was over 10 µM, the IC50 (L-363) was under 10 µM and the IC50 (OVCAR4) was over 10 µM. The IC50 (HCT116) was under 10 µM, the IC50 (KASUMI-1) was over 10 µM and the IC50 (UO31) was over 10 µM. For the same compound, the IC50 (SKNSH; [1]) was over 10 µM, the IC50 (SKNSH; Responder Cell Lines) was under 10 µM and the IC50 (K-562) was under 10 µM. The IC50 (SNB75) was over 10 µM, the IC50 (A2780) was under 10 µM and the IC50 (MG63) was over 10 µM. It also gave an IC50 (THP-1; [1]) of over 10 µM, an IC50 (THP-1; Responder Cell Lines) of under 10 µM and an IC50 (MIAPACA2) of over 10 µM. It also gave an IC50 (SKHEP1; [1]) of over 10 µM, an IC50 (SKHEP1; Responder Cell Lines) of under 10 µM and an IC50 (SW620) of over 10 µM.

Reference: patent US20220356170A1, “SREBP INHIBITOR COMPRISING A THIOPHENE CENTRAL RING” (Capulus Therapeutics, LLC, priority 2019, published 2022)
